# Reference: patent US4476120A, “Thiolic derivatives of erythromycin having therapeutic activity, and pharmaceutical compositions containing them” (Sigma Tau Indistrie Farmaceutiche Riunites, p.A, priority 1982, dated 1984)
# Key:
# Br. melitensis SS 19 = format: cell-based; conditions: unit assumed
# Ps. aeruginosa SS 10 = format: cell-based; conditions: Brain Heart Infusion, estolate and RV11-RV15 previously hydrolized, unit assumed
# N. meningitidis SS 04 = format: cell-based; conditions: Brain Heart Infusion, estolate and RV11-RV15 previously hydrolized, unit assumed
# Staph. albus SS 03 = format: cell-based; conditions: Brain Heart Infusion, estolate and RV11-RV15 previously hydrolized, unit assumed
# Acute toxicity = format: in vivo; conditions: mortality 10 days after treatment, mice
# Method: The acute toxicity was assessed in Swiss white mice by oral and intravenous route. The LD50 values have been calculated by the methods of Probits, starting from the mortality recorded 10 days after the treatment.
# H. pertussis SS 03 = format: cell-based; conditions: Brain Heart Infusion, estolate and RV11-RV15 previously hydrolized, unit assumed
# B. subtilis SS 127 = format: cell-based; conditions: Brain Heart Infusion, estolate and RV11-RV15 previously hydrolized, unit assumed
# E. aerogenes SS 011 = format: cell-based; conditions: Brain Heart Infusion, estolate and RV11-RV15 previously hydrolized, unit assumed
# Kl. aerogenes SS 71 = format: cell-based; conditions: Brain Heart Infusion, estolate and RV11-RV15 previously hydrolized, unit assumed
# [1] = Histological examination of bronchi after SO2 inhalation; format: in vivo, Sprague Dawley male rats; conditions: i.m., 250 mg/kg; for histological appearance of non obstructed bronchi: free non obstructed
# Citrobacter SS 09 = format: cell-based; conditions: Brain Heart Infusion, estolate and RV11-RV15 previously hydrolized, unit assumed
# B. anthranis SS 09 = format: cell-based; conditions: B. anthranis SS 09 (14 bis); Brain Heart Infusion; estolate and RV11-RV15 previously hydrolized; unit assumed
# Staph. albus SS 04 = format: cell-based; conditions: Brain Heart Infusion, estolate and RV11-RV15 previously hydrolized, unit assumed
# H. tubercolosis SS 03 = format: cell-based; conditions: Brain Heart Infusion, estolate and RV11-RV15 previously hydrolized, unit assumed
# Source text: (§1) In the following table I the MIC/ml values are indicated corresponding to the lowest concentration capable of inducing a complete inhibition of the bacterial development.
# Kl. pneumoniae SS 04 = format: cell-based; conditions: Brain Heart Infusion, estolate and RV11-RV15 previously hydrolized, unit assumed
# Source text: as §1
# Br. abortus SS 7 = format: cell-based; conditions: Brain Heart Infusion, estolate and RV11-RV15 previously hydrolized, unit assumed
# Staph. aureus SS 07 [2] = experiment: Experimental infection induced by Staph. aureus SS 07; format: in vivo, Swiss white mice; conditions: Staph. aureus SS 07, mg/kg of erythromycin, survival after 7 days, 10080 min
# Method in brief: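 Swiss mice of 20 g infected parenterally with lethal amounts of Staph. aureus SS 07 or D. pneumoniae SS 23. Antibiotics were given at infection and again 6 and 24 h later. ED50 was derived from survival at 7 days.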
# [3] = tested on: Strept. haemolyticus SS 17; format: cell-based; conditions: Brain Heart Infusion, estolate and RV11-RV15 previously hydrolized, unit assumed
# B. subtilis ATCC 6633 = format: cell-based; conditions: Brain Heart Infusion, estolate and RV11-RV15 previously hydrolized, unit assumed
# Cl. tetani SS 17 = format: cell-based; conditions: Brain Heart Infusion, estolate and RV11-RV15 previously hydrolized, unit assumed
# Staph. aureus SS 07 [4] = format: cell-based; conditions: Brain Heart Infusion, estolate and RV11-RV15 previously hydrolized, unit assumed
# C. diphtheriae SS 19 = format: cell-based; conditions: Brain Heart Infusion, estolate and RV11-RV15 previously hydrolized, unit assumed
# E. coli SS 04 = format: cell-based; conditions: Brain Heart Infusion, estolate and RV11-RV15 previously hydrolized, unit assumed
# E. coli SS 06 = format: cell-based; conditions: Brain Heart Infusion, estolate and RV11-RV15 previously hydrolized, unit assumed
# H. influentiae SS 02 = format: cell-based; conditions: Brain Heart Infusion, estolate and RV11-RV15 previously hydrolized, unit assumed
# E. coli SS 07 = format: cell-based; conditions: Brain Heart Infusion, estolate and RV11-RV15 previously hydrolized, unit assumed
# D. pneumoniae SS 23 = format: cell-based; conditions: Brain Heart Infusion, estolate and RV11-RV15 previously hydrolized, unit assumed
# Pr. vulgaris SS 10 = format: cell-based; conditions: Brain Heart Infusion, estolate and RV11-RV15 previously hydrolized, unit assumed
# [5] = Mucolytic activity: obstruction of the bronchial tract after SO2 inhalation; format: in vivo, Sprague Dawley male rats; conditions: i.m., 250 mg/kg; SO2, 15 days
# Sr. marcescens SS 03 = format: cell-based; conditions: Brain Heart Infusion, estolate and RV11-RV15 previously hydrolized, unit assumed
# N. gonorreae SS 27 = format: cell-based; conditions: Brain Heart Infusion, estolate and RV11-RV15 previously hydrolized, unit assumed
# Pr. mirabilis SS 09 = format: cell-based; conditions: Brain Heart Infusion, estolate and RV11-RV15 previously hydrolized, unit assumed
# S. infantis SS 08 = format: cell-based; conditions: Brain Heart Infusion, estolate and RV11-RV15 previously hydrolized, unit assumed
# Staph. aureus SS 08 = format: cell-based; conditions: Brain Heart Infusion, estolate and RV11-RV15 previously hydrolized, unit assumed
# S. heidelberg SS 18 = format: cell-based; conditions: Brain Heart Infusion, estolate and RV11-RV15 previously hydrolized, unit assumed
# Staph. aureus SS 09 = format: cell-based; conditions: Brain Heart Infusion, estolate and RV11-RV15 previously hydrolized, unit assumed
# C. albicans SS 04 = format: cell-based; conditions: Brain Heart Infusion, estolate and RV11-RV15 previously hydrolized, unit assumed
# Staph. aureus SS 10 = format: cell-based; conditions: Brain Heart Infusion, estolate and RV11-RV15 previously hydrolized, unit assumed
# Strept. faecalis SS 19 = format: cell-based; conditions: Brain Heart Infusion, estolate and RV11-RV15 previously hydrolized, unit assumed
# E. coli SS 05 = format: cell-based; conditions: Brain Heart Infusion, estolate and RV11-RV15 previously hydrolized, unit assumed
# B. anthranis SS 08 = format: cell-based; conditions: Brain Heart Infusion, estolate and RV11-RV15 previously hydrolized, unit assumed
# Citrobacter SS 05 = format: cell-based; conditions: Brain Heart Infusion, estolate and RV11-RV15 previously hydrolized, unit assumed
# [6] = tested on: Strept. haemolyticus SS 18; format: cell-based; conditions: Brain Heart Infusion, estolate and RV11-RV15 previously hydrolized, unit assumed
structure (smiles),measurement,setting,value
"CC[C@H]1OC(=O)[C@H](C)[C@@H](O[C@H]2C[C@@](C)(OC)[C@@H](O)[C@H](C)O2)[C@H](C)[C@@H](O[C@@H]2O[C@H](C)C[C@H](N(C)C)[C@H]2O)[C@](C)(O)C[C@@H](C)C(=O)[C@H](C)[C@@H](O)[C@]1(C)O [RV03, erythromycyn-thiazolidin-carboxylate]",MIC,Br. melitensis SS 19,6 µg/mL
same,MIC,Ps. aeruginosa SS 10,100 µg/mL
same,MIC,N. meningitidis SS 04,1.5 µg/mL
same,MIC,Staph. albus SS 03,0.05 µg/mL
same,LD50 (reliability limits),"Acute toxicity; i.v., 14400 min",491.96 (552.31-438.20) mg.kg
same,LD50 (reliability limits),Acute toxicity; os,> 3000 mg·kg
same,MIC,H. pertussis SS 03,0.4 µg/mL
same,MIC,B. subtilis SS 127,0.025 µg/mL
same,MIC,E. aerogenes SS 011,50 µg/mL
same,MIC,Kl. aerogenes SS 71,50 µg/mL
same,histological appearance of non obstructed bronchi,[1],practically normal appearance
same,histological appearance of obstructed bronchial tract,[1],an appearance like that of the control animals
same,MIC,Citrobacter SS 09,> 200 µg/mL
same,MIC,B. anthranis SS 09,0.4 µg/mL
same,MIC,Staph. albus SS 04,0.025 µg/mL
same,MIC,H. tubercolosis SS 03,25 µg/mL
same,MIC,Kl. pneumoniae SS 04,100 µg/mL
same,MIC,Br. abortus SS 7,6 µg/mL
same,ED50 (reliability limits),Staph. aureus SS 07 [2]; os,2.14 (2.42-1.89) mg/kg
same,ED50 (reliability limits),Staph. aureus SS 07 [2]; s.c.,1.00 (1.36-0.73) mg/kg
same,MIC,[3],1.5 µg/mL
same,MIC,B. subtilis ATCC 6633,0.05 µg/mL
same,MIC,Cl. tetani SS 17,0.4 µg/mL
same,MIC,Staph. aureus SS 07 [4],0.025 µg/mL
same,MIC,C. diphtheriae SS 19,0.025 µg/mL
same,MIC,E. coli SS 04,100 µg/mL
same,MIC,E. coli SS 06,50 µg/mL
same,MIC,H. influentiae SS 02,1.5 µg/mL
same,MIC,E. coli SS 07,50 µg/mL
same,MIC,D. pneumoniae SS 23,0.025 µg/mL
same,MIC,Pr. vulgaris SS 10,> 200 µg/mL
same,Partial obstruction (% incidence),[5],6.66%
same,"Total obstruction, compact plug (% incidence)",[5],26.66%
same,"Total obstruction, nodular mass (% incidence)",[5],20%
same,"Total obstruction, pimply mass (% incidence)",[5],6.66%
same,MIC,Sr. marcescens SS 03,100 µg/mL
same,MIC,N. gonorreae SS 27,0.8 µg/mL
same,MIC,Pr. mirabilis SS 09,> 200 µg/mL
same,MIC,S. infantis SS 08,200 µg/mL
same,MIC,Staph. aureus SS 08,0.025 µg/mL
same,MIC,S. heidelberg SS 18,100 µg/mL
same,MIC,Staph. aureus SS 09,0.05 µg/mL
same,MIC,C. albicans SS 04,200 µg/mL
same,MIC,Staph. aureus SS 10,0.1 µg/mL
same,MIC,Strept. faecalis SS 19,0.05 µg/mL
same,MIC,E. coli SS 05,50 µg/mL
same,MIC,B. anthranis SS 08,0.2 µg/mL
same,MIC,Citrobacter SS 05,> 200 µg/mL
same,MIC,[6],1.5 µg/mL
"CC[C@H]1OC(=O)[C@H](C)[C@@H](O[C@H]2C[C@@](C)(OC)[C@@H](O)[C@H](C)O2)[C@H](C)[C@@H](O[C@@H]2O[C@H](C)C[C@H](N(C)C)[C@H]2O)[C@](C)(O)C[C@@H](C)C(=O)[C@H](C)[C@@H](O)[C@]1(C)O [RV05, erythromycin-N-acetylcysteinate]",MIC,Br. melitensis SS 19,3 µg/mL
same,MIC,Ps. aeruginosa SS 10,200 µg/mL
same,MIC,N. meningitidis SS 04,0.8 µg/mL
same,MIC,Staph. albus SS 03,0.05 µg/mL
same,LD50 (reliability limits),"Acute toxicity; i.v., 14400 min",472.84 (529.08-442.57) mg.kg
same,LD50 (reliability limits),Acute toxicity; os,> 3000 mg·kg
same,MIC,H. pertussis SS 03,0.2 µg/mL
same,MIC,B. subtilis SS 127,0.01 µg/mL
same,MIC,E. aerogenes SS 011,100 µg/mL
same,MIC,Kl. aerogenes SS 71,50 µg/mL
same,histological appearance of non obstructed bronchi,[1],practically normal appearance
same,histological appearance of obstructed bronchial tract,[1],an appearance like that of the control animals
same,MIC,Citrobacter SS 09,> 200 µg/mL
same,MIC,B. anthranis SS 09,0.4 µg/mL
same,MIC,Staph. albus SS 04,0.025 µg/mL
same,MIC,H. tubercolosis SS 03,50 µg/mL
same,MIC,Kl. pneumoniae SS 04,50 µg/mL
same,MIC,Br. abortus SS 7,12 µg/mL
same,ED50 (reliability limits),Staph. aureus SS 07 [2]; os,2.08 (2.38-1.83) mg/kg
same,ED50 (reliability limits),Staph. aureus SS 07 [2]; s.c.,1.33 (1.61-1.10) mg/kg
same,MIC,[3],3 µg/mL
same,MIC,B. subtilis ATCC 6633,0.01 µg/mL
same,MIC,Cl. tetani SS 17,0.2 µg/mL
same,MIC,Staph. aureus SS 07 [4],0.025 µg/mL
same,MIC,C. diphtheriae SS 19,0.05 µg/mL
same,MIC,E. coli SS 04,100 µg/mL
same,MIC,E. coli SS 06,100 µg/mL
same,MIC,H. influentiae SS 02,0.8 µg/mL
same,MIC,E. coli SS 07,25 µg/mL
same,MIC,D. pneumoniae SS 23,0.05 µg/mL
same,MIC,Pr. vulgaris SS 10,> 200 µg/mL
same,Partial obstruction (% incidence),[5],6.66%
same,"Total obstruction, compact plug (% incidence)",[5],20%
same,"Total obstruction, nodular mass (% incidence)",[5],13.33%
same,"Total obstruction, pimply mass (% incidence)",[5],6.66%
same,MIC,Sr. marcescens SS 03,200 µg/mL
same,MIC,N. gonorreae SS 27,0.8 µg/mL
same,MIC,Pr. mirabilis SS 09,> 200 µg/mL
same,MIC,S. infantis SS 08,100 µg/mL
same,MIC,Staph. aureus SS 08,0.025 µg/mL
same,MIC,S. heidelberg SS 18,100 µg/mL
same,MIC,Staph. aureus SS 09,0.1 µg/mL
same,MIC,C. albicans SS 04,100 µg/mL
same,MIC,Staph. aureus SS 10,0.025 µg/mL
same,MIC,Strept. faecalis SS 19,0.2 µg/mL
same,MIC,E. coli SS 05,25 µg/mL
same,MIC,B. anthranis SS 08,0.4 µg/mL
same,MIC,Citrobacter SS 05,> 200 µg/mL
same,MIC,[6],0.8 µg/mL
